Experimental data as given in US10471118B2, “Retinylamine derivitives for treatment of ocular disorders” (CASE WESTERN RESERVE UNIVERSITY, priority 2014, dated 2019).
“Also recorded” adds a separate entry of the source.

Legend:
Abca4^−/−Rdh8^−/− mice [1] = assay: Light-induced retinal degeneration in Abca4-/-Rdh8-/- mice (OCT, ERG, histology), Example 1; assay type: in vivo, mouse; details: for protection against light-induced retinal degeneration (ONL thickness from OCT): 0.875 μmol per mouse oral gavage 16 h before 10,000 lux 1 h, OCT after 3 days in dark
Method: Abca4^−/−Rdh8^−/− double knockout mice were housed in the animal facility at the School of Medicine, Case Western Reserve University, where they were maintained under either complete darkness or a 12-h light (−10 1×) and 12-h dark cycle. All retinylamine tested were dissolved or suspended in 100 μl of vegetable oil with less than 10% (v/v) DMSO and were administered by oral gavage with a 22-gauge feeding needle. Experimental manipulations in the dark were done under dim red light transmitted through a Kodak No. 1 safelight filter (transmittance >560 nm). All animal procedures and experiments were approved by the Case Western Reserve University Animal Care Committees and conformed to recommendations of the American Veterinary Medical Association Panel on Euthanasia and the Association of Research for Vision and Ophthalmology.
After dark adaptation for 48 h, one or two Abca4^−/−Rdh8^−/− mice with pupils dilated by 1% tropicamide were exposed to fluorescent light (10,000 1×; 150-W spiral lamp, Commercial Electric) for 60 min in a white plastic bucket (Papersmith) with food and water and then kept in the dark. Histological and biochemical experiments were performed 3 days after exposure.
Ultra-high resolution spectral-domain OCT (SD-OCT; Bioptigen) and Heidelberg Retinal Angiograph II SLO (Heidelberg Engineering) were used for in vivo imaging of mouse retinas. Mice were anesthetized by intraperitoneal injection of a cocktail (20 μl g-1 body weight) containing ketamine (6 mg ml-1) and xylazine (0.44 mg ml-1) in 10 mM sodium phosphate, pH 7.2, and 100 mM NaCl. Pupils were dilated with 1% tropicamide. Four pictures acquired in the B-scan mode were used to construct each final averaged SD-OCT image.
All ERG procedures were performed by published methods. For single-flash recording, the duration of white-light flash stimuli (from 20 μs to 1 ms) was adjusted to provide a range of illumination intensities (from −3.7 to 1.6 log cd s m-2). Three to five recordings were made at sufficient intervals between flash stimuli (from 3 s to 1 min) to allow recovery from any photobleaching effects.
Mouse eyes were fixed for 24 h by rocking in a fixation solution (2 ml/eye) containing 4% paraformaldehyde and 1% glutaraldehyde in PBS. The tissue was processed through a series of ethanols, xylenes, and paraffins in a Tissue-Tek VIP automatic processor (Sakura, Torrance, Calif., USA), and 5-μm sections were cut using a Microm HM355 paraffin microtome (Thermo Fisher Scientific, Waltham, Mass., USA) and stained with hematoxylin and eosin (H&E) stain. Images of stained sections were captured by a Leica CTR6000 microscope attached to a CCD camera (Micropublisher 5.0 RTV, Qimaging Surray BC, Canada).
The effectiveness of the retinylamine derivatives on preventing light-induced retinal degeneration was tested in four-week old Abca4^−/−Rdh8^−/− mice according to the experimental scheme depicted in FIG. 1. After the mice were dark-adapted for 48 h, the drugs were gavaged at a dose 0.875 μmol/per mouse, which was selected based on the half protection dose for retinylamine after a dosing experiment, FIG. 2. Retinylamine was tested as a control at the same dose. […] Retinal integrity was assessed using optical coherence tomography (OCT). […] The mice without any treatment had photoreceptor cells completely destroyed after light illumination, and were used as a negative control. The retinal integrity was determined based on the thickness of outer nuclear layer (ONL) of the retinas measured from the OCT images. Reduced ONL thickness signifies the decreasing number of photoreceptors and retinal degeneration.

[2] = Storage stability of PEG-GFL-NH-Ret conjugate in solid form; assay type: physicochemical; details: room temperature, same condition
Source text: The number and weight-average molecular weights of polymer conjugate was 21 and 22 kDa (Mw/Mn=1.05), as determined by size exclusion chromatography. […] The structure of PEG-GFL-NHRet was preserved during the storage in solid form more than 6 months at room temperature, while free Ret-NH2 decomposed in less than 1 week under the same condition.

[3] = Pharmacokinetics of PEG-GFL-NH-Ret in C57BL mice (N-retinylamides in liver and eye); assay type: in vivo; details: 1 mg equivalent Ret-NH2 per mouse oral, especially first 8 h after gavage
Method: Female C57BL mice (4-week-old) were randomly divided into two dosing groups. One group of mice was gavaged with one dose of Ret-NH2 (1 mg per mouse, dissolved in DMSO), and the other group of mice was also gavaged once with PEG-GFL-NH-Ret (17.5 mg per mouse, equivalent to 1 mg Ret-NH2 per mouse). Then at each predetermined time point (0, 4 h, 8 h, 24 h, 48 h and 72 h after drug administration), 6 mice were sacrificed. The liver and eye balls were collected to determine tissue N-retinylamide content for pharmacokinetic analysis. A portion of the liver tissue (ca. 0.5 g) was weighed, homogenized in 2 mL 1:1 ethanol:PBS solution and the eye balls were similarly processed. N-Retinylamides were extracted in 4 mL hexane, concentrated, and reconstituted to a 300 μL volume. Normal-phase HPLC (Agilent-Zorbax SIL; 5 μm; 4.5×250 mm; flow rate of 1.4 mL/min; 80:20 hexane:ethyl acetate (v:v); detection at 325 nm) was utilized to determine N-retinylamide concentration in these tissues.

Abca4^−/−Rdh8^−/− mice [4] = assay: Preventing light-induced retinal degeneration with PEG-GFL-NH-Ret in Abca4-/-Rdh8-/- mice; assay type: in vivo, mouse
Method: Abca4^−/−Rdh8^−/− mice (male and female, 4-week-old, 4-5 mice in each treatment group) were kept in the dark for 48 h before each experiment. Then free Ret-NH2 (0.5 mg, 1.75 μmol) per mouse) or conjugate PEG-GFL-NH-Ret (8.75 mg per mouse, equivalent to 0.5 mg free Ret-NH2 per mouse) was administered by gastric gavage. Mice were illuminated with 10,000 lux light for 30 min at 1 day, 3 days or 6 days after their gavage, and then kept in the dark for 7 days when final retinal evaluations were performed. […] Dark-adapted mice were anesthetized by the same protocol used for OCT recordings. All experimental procedures were performed under a safety light. A contact lens electrode was placed on the eye, and a reference electrode and ground electrode were placed underneath the skin between the two ears and in the tail, respectively. ERGs were recorded with the universal electrophysiologic system UTAS E-3000 (LKC Technologies, Inc., Gaithersburg, Md.). Light intensity calibrated by the manufacturer was computer-controlled. Mice were placed in a Ganzfeld dome, and scotopic responses to flash stimuli were obtained from both eyes simultaneously.

Row | protection against light-induced retinal degeneration (ONL thickness from OCT) (Abca4^−/−Rdh8^−/− mice [1]; listed as phenylalanyl) | time to decomposition on storage [2] | ERG responses (Abca4^−/−Rdh8^−/− mice [4]; gavaged 3 days before strong light exposure) | SMILES | protection against light-induced retinal degeneration (ONL thickness from OCT) (Abca4^−/−Rdh8^−/− mice [1]) | average scotopic a wave ERG peak amplitudes (Abca4^−/−Rdh8^−/− mice [1]; 0.875 μmol per mouse 16 h prior to light illumination, evaluated 7 days later) | retina structure by histology (H&E) (Abca4^−/−Rdh8^−/− mice [1]; treated before intense light exposure, 7 days after light exposure) | liver concentrations of N-retinylamides [3] | protection against light-induced retinal degeneration by OCT (Abca4^−/−Rdh8^−/− mice [4]; 0.5 mg Ret-NH2 equivalent per mouse gavaged 1 day before light exposure) | protection against light-induced retinal degeneration by OCT (Abca4^−/−Rdh8^−/− mice [4]; 0.5 mg Ret-NH2 equivalent per mouse gavaged 3 days before light exposure) | protection against light-induced retinal degeneration by OCT (Abca4^−/−Rdh8^−/− mice [4]; 0.5 mg Ret-NH2 equivalent per mouse gavaged 6 days before light exposure) | ONL thickness from OCT images (Abca4^−/−Rdh8^−/− mice [4]; gavaged 1 day before light exposure) | ONL thickness from OCT images (Abca4^−/−Rdh8^−/− mice [4]; gavaged 3 days before strong light illumination)
1 | little protecting efficacy |  |  | CC1=C(/C=C/C(C)=C/C=C/C(C)=C/CNC(=O)[C@@H](N)Cc2ccccc2)C(C)(C)CCC1 [RF, (S)-2-amino-N-((2E,4E,6E,8E)-3,7-dimethyl-9-(2,6,6-trimethylcyclohex-1-en-1-yl)nona-2,4,6,8-tetraen-1-yl)-3-phenylpropanamide] | low protecting effect |  |  |  |  |  |  |  | 
2 |  |  |  | CC1=C(/C=C/C(C)=C/C=C/C(C)=C/CNC(=O)[C@@H](NC(=O)CN)C(C)C)C(C)(C)CCC1 [RVG, (S)-2-(2-aminoacetamido)-N-((2E,4E,6E,8E)-3,7-dimethyl-9-(2,6,6-trimethylcyclohex-1-en-1-yl)nona-2,4,6,8-tetraen-1-yl)-3-methylbutanamide] | significant improvement on preventing light-induced retinopathy over retinyl amine | virtually the same as those without light-illumination (NLI) | maintained intact retina structure; also recorded: protected Abca4^−/−Rdh8^−/− retina from light damage |  |  |  |  |  | 
3 |  | less than 1 week | significant loss of ERG activity | CC1=C(/C=C/C(C)=C/C=C/C(C)=C/CN)C(C)(C)CCC1 [Ret-NH2, (2E,4E,6E,8E)-3,7-dimethyl-9-(2,6,6-trimethylcyclohex-1-en-1-yl)nona-2,4,6,8-tetraen-1-amine] |  |  |  | much higher liver concentrations of N-retinylamides than those treated with the conjugate | effective protection against light-induced retinal degeneration | did not maintain such protection | No protective effect | thickness comparable to that of mice without light illumination | significantly reduced
